{"source": "patent US20230034660A1", "about": "“PEPTIDES THAT ENHANCE NMDA RECEPTOR FUNCTION AND USE THEREOF” (University of Pittsburgh - Of the Commonwealth System of …, priority 2019, published 2023)", "target": "T1, mouse ZnT-1 (Mus musculus, UniProt Q60738)", "T1 construct": "host or cells: HEK293", "T1 sequence (Q60738 1-503)": "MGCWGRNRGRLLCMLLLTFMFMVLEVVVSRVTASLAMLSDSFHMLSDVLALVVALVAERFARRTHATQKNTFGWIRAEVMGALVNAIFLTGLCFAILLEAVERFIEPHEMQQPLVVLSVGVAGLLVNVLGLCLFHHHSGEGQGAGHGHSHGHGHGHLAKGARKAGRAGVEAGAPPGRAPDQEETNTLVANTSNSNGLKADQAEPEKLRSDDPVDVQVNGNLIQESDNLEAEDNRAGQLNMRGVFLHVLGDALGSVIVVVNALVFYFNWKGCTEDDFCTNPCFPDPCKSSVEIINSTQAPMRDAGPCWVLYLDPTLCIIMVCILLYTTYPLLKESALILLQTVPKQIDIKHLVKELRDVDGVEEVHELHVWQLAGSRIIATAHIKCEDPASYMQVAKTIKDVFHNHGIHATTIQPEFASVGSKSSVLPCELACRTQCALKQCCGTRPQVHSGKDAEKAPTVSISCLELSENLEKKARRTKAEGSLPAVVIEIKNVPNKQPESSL", "test": "Zinc efflux assay (FluoZin-3) in ZnT1-transfected HEK293 cells", "format": "cell-based", "conditions": "ZnT1-expressing HEK293 cells, 3 μM overnight, N2AZ versus scN2AZ", "procedure": "HEK293 cells were grown in Dulbecco's modified Eagle's medium (DMEM) containing: 100 units/ml penicillin, 0.1 mg/ml streptomycin, 2 mm glutamine, and 10% (v/v) fetal calf serum in a 5% CO2 humidified atmosphere at 37° C. To express ZnT1, HEK 293 cells were transfected with ZnT1 or empty plasmid (control) using CaPO4 precipitation. Briefly,1 μg mouse ZnT-1 (pCMV6:ZnT1 Gen Bank Q60738) or empty vector plasmid (pCMV6, Origene) was incubated with 2 M calcium chloride in HEPES buffered solution containing […] to generate a co-precipitate, this solution was then dispersed onto cultured cells for 6 hours. Twenty four hours later, cells were treated with the scN2AZ or N2AZ (3 μM ) overnight. […] Rates of initial decrease of the fluorescent signal following exposure to Zn^2+ were determined during a 100 second period. […] Fluorescence imaging measurements were acquired using Axon Imaging Workbench 5.2 (INDEC BioSystems) and analyzed using Excel and Prism GraphPad.\nNext, it was examined whether N2AZ could modify ZnT1-dependent zinc transport. Following an intracellular zinc load, decreases in intracellular zinc levels were measured over time as a readout of zinc transport in HEK293 cells previously transfected with a plasmid encoding for ZnT1 or an empty vector. FluoZin-3 fluorescence was utilized to quantify intracellular zinc levels (Qin et al., 2009; Shusterman et al., 2014). […]", "data": [{"sequence": "NDSYLRSSL [Peptide N2AZ]", "values": [{"measurement": "rate of zinc efflux", "result": "not different"}]}]}
